Laboratory results from patent US20050208496A1, “Methods of testing for bronchial asthma or chronic obstructive pulmonary disease” (Genox Research, Inc., priority 2002, published 2005).
Like-named read-outs stand apart in the source and are kept apart here.

System: respiratory epithelial cells
[1] = IL-13 vs no stimulation, lot 2 Day 3 AI
[2] = IL-13 vs no stimulation, lot 2 Day 7 AI

Substance: IL-13: human IL-13 (Peprotech, Inc.) added to the medium at 50 ng/mL to stimulate respiratory epithelial cells
- IGFBP6 (1736_at) expression change [1]: −4.7
- LOH11CR2A (38151_at) expression change [1]: −3.2
- MMP9 (31859_at) expression change [1]: −18
- MMP10 (1006_at) expression change [1]: −30.3
- MSMB (32149_at) expression change [1]: −21.3
- NDRG1 (36933_at) expression change [1]: −2.9
- NOTCH3 (38750_at) expression change [1]: −4.5
- PFTK1 (36502_at) expression change [1]: −2.3
- PSCA (33792_at) expression change [1]: −4.9
- PTK2B (33804_at) expression change [1]: −3.7
- PTPRZ1 (1364_at) expression change [1]: −4.3
- RARRES1 (1042_at) expression change [1]: −3.1
- RARRES1 (33505_at) expression change [1]: −3.5
- RDC1 (34288_at) expression change [1]: −3.7
- RTP801 (39827_at) expression change [1]: −2.3
- S100A8 (41096_at) expression change [1]: −3
- SEC14L2 (32817_at) expression change [1]: −6.9
- SERPINA3 (33825_at) expression change [1]: −7
- SERPINE1 (672_at) expression change [1]: −62.1
- SERPINE1 (38125_at) expression change [1]: −11.2
- STK39 (39120_at) expression change [1]: −2.6
- TSPAN-5 (40990_at) expression change [1]: −3.2
- VRP (38223_at) expression change [1]: −2
- c-fos (1915_s_at) expression change [1]: −2
- c-fos (1916_s_at) expression change [1]: −3.1
- AGR2 (38827_at) expression change [2]: −3.7
- AKR1B10 (37482_at) expression change [2]: −9.7
- AKR1C3 (37399_at) expression change [2]: −2.8
- ANXA10 (32349_at) expression change [2]: −18.9
- APM2 (32527_at) expression change [2]: −3.3
- BCAS1 (37821_at) expression change [2]: −13.2
- BDKRB2 (39310_at) expression change [2]: −4.2
- BENE (33331_at) expression change [2]: −8.5
- C4.4A (41641_at) expression change [2]: −6.8
- CRA (1230_g_at) expression change [2]: −3
- CTSL2 (40717_at) expression change [2]: −5.6
- DEFB2 (32464_at) expression change [2]: −2.6
- ECM1 (37600_at) expression change [2]: −11
- EPHA1 (1108_s_at) expression change [2]: −3.6
- ETFB (36881_at) expression change [2]: −3.4
- FABP5 (39799_at) expression change [2]: −3
- GABRE (34280_at) expression change [2]: −3.2
- HLA-DPB1 (38095_i_at) expression change [2]: −2.5
- HLA-DPB1 (38096_f_at) expression change [2]: −3.3
- IGFBP6 (1736_at) expression change [2]: −7.2
- IMPA2 (36496_at) expression change [2]: −2.7
- MMP9 (31859_at) expression change [2]: −113.5
- MMP10 (1006_at) expression change [2]: −35.2
- MN1 (37283_at) expression change [2]: −7.3
- MSMB (32149_at) expression change [2]: −8.1
- NCALD (38803_at) expression change [2]: −4.2
- NOTCH3 (38750_at) expression change [2]: −3.5
- PFTK1 (36502_at) expression change [2]: −3.5
- PSCA (33792_at) expression change [2]: −9.2
- PTK2B (33804_at) expression change [2]: −3.5
- PTPRZ1 (1364_at) expression change [2]: −14.9
- RARRES1 (1042_at) expression change [2]: −2.4
- RARRES1 (33505_at) expression change [2]: −3.4
- RDC1 (34288_at) expression change [2]: −3
- RTP801 (39827_at) expression change [2]: −2.4
- S100A8 (41096_at) expression change [2]: −6.1
- SERPINA3 (33825_at) expression change [2]: −9.3
- SERPINB1 (33305_at) expression change [2]: −2.9
- SERPINB5 (862_at) expression change [2]: −2.2
- SERPINE1 (672_at) expression change [2]: −34.4
- SERPINE1 (38125_at) expression change [2]: −11
- STK39 (39120_at) expression change [2]: −2.3
- TSPAN-5 (40990_at) expression change [2]: −6
- VRP (38223_at) expression change [2]: −2.4
- c-fos (1915_s_at) expression change [2]: −2.3
- c-fos (1916_s_at) expression change [2]: −3.6
- pendrin gene expression level, factor of increase in response to IL-13 stimulation (IMM method, day 3 and day 7, both Lots 1 and 2): ≥ 20
- pendrin gene (36376_at, AF030880) expression fold change upon IL-13 stimulation, HG-U95A chip (Lot 2, Day 3, AI): 118.3
- pendrin gene (36376_at, AF030880) expression fold change upon IL-13 stimulation, HG-U95A chip (Lot 2, Day 7, AI): 58.2
- AA149682 (51925_at) expression fold change (lot 1, Day 3, AI method): 2.9 fold
- AA420479 (52539_at) expression fold change (lot 1, Day 3, AI method): 3.8 fold
- AA541787 (52622_at) expression fold change (lot 1, Day 3, AI method): 3.3 fold
- AA582926 (52307_at) expression fold change (lot 1, Day 3, AI method): 2.4 fold
- ACP5 (677_s_at) expression, fold change upon IL-13 stimulation (lot 1, Day 3, AI method): −2.8 fold
- ADAM8 (40712_at) expression, fold change upon IL-13 stimulation (lot 1, Day 3, AI method): 5.8 fold
- ADAM28 (35479_at) expression, fold change upon IL-13 stimulation (lot 1, Day 3, AI method): 9 fold
- AI310524 (47087_at) expression fold change (lot 1, Day 3, AI method): 3.6 fold
- AI565105 (54886_at) expression fold change (lot 1, Day 3, AI method): 2.8 fold
- AI659927 (54033_at) expression fold change (lot 1, Day 3, AI method): 4.2 fold
- AI718385 (53061_at) expression fold change (lot 1, Day 3, AI method): 4.6 fold
- AI809925 (53010_at) expression fold change (lot 1, Day 3, AI method): 3.1 fold
- AI989346 (52327_s_at) expression fold change (lot 1, Day 3, AI method): 2.9 fold
- AKAP2 (35985_at) expression, fold change upon IL-13 stimulation (lot 1, Day 3, AI method): 6 fold
- AKAP2 (48035_at) expression fold change (lot 1, Day 3, AI method): 6.6 fold
- ALOX15 (34636_at) expression, fold change upon IL-13 stimulation (lot 1, Day 3, AI method): 47.8 fold
- BAL (52167_at) expression fold change (lot 1, Day 3, AI method): 3.5 fold
- BRCA1 (626_s_at) expression fold change (lot 1, Day 3, AI method): 9.1 fold
- BST2 (39061_at) expression, fold change upon IL-13 stimulation (lot 1, Day 3, AI method): 9.9 fold
- C1S (40496_at) expression, fold change upon IL-13 stimulation (lot 1, Day 3, AI method): 3.3 fold
- C21orf11 (58957_at) expression fold change (lot 1, Day 3, AI method): 6.6 fold
- CCND3 (1794_at) expression fold change upon IL-13 stimulation (lot 1, Day 3, AI method): 2.2 fold
- CCND3 (1795_g_at) expression fold change upon IL-13 stimulation (lot 1, Day 3, AI method): 2.2 fold
- CD47 (37890_at) expression fold change (lot 1, Day 3, AI method): 2.1 fold
- CDH6 (1620_at) expression fold change upon IL-13 stimulation (lot 1, Day 3, AI method): 4.3 fold
- CDH6 (57421_at) expression fold change (lot 1, Day 3, AI method): 3.5 fold
- CDH26 (46916_at) expression fold change (lot 1, Day 3, AI method): 8.9 fold
- CH25H (32363_at) expression, fold change upon IL-13 stimulation (lot 1, Day 3, AI method): 9.9 fold
- CLDN1 (46260_at) expression fold change (lot 1, Day 3, AI method): 2.4 fold
- CLDN4 (35276_at) expression, fold change upon IL-13 stimulation (lot 1, Day 3, AI method): 2.3 fold
- CTSC (133_at) expression, fold change upon IL-13 stimulation (lot 1, Day 3, AI method): 3.5 fold
- CXCL16 (44095_at) expression fold change (lot 1, Day 3, AI method): 2.5 fold
